# From PMC8835884 (2022)
# How the values were obtained:
# [1] = system: TQ3/Cy3-fl (RNA, riboswitch, aminoallyl-U conjugated to TQ3 at 24; Cy3-C at 55) GGGAAGAUAUAAUCCUAAUGAUAUGGUUUGGGAGUUUCUACCAAGAGCCUUAAACUCUUGAUUAUCUUCUCUGUCGCUUUAUCCCAAAUUUUAUAAAGAGAAGACUCAUGAAU; experiment: Cy3-TQ3 FRET quenching titration, steady-state fluorescence; settings: Mg2+ not stated
# [2] = system: TQ3/Cy3-fl (RNA, riboswitch, aminoallyl-U conjugated to TQ3 at 24; Cy3-C at 55) GGGAAGAUAUAAUCCUAAUGAUAUGGUUUGGGAGUUUCUACCAAGAGCCUUAAACUCUUGAUUAUCUUCUCUGUCGCUUUAUCCCAAAUUUUAUAAAGAGAAGACUCAUGAAU; experiment: Cy3-TQ3 FRET quenching titration, steady-state fluorescence, sigmoidal fit; settings: 100 mM KCl, 2 mM MgCl2; 10 mM HEPES, pH 7.5; 0.4 μM RNA; apparent
# [3] = system: TQ3/Cy3-apt (RNA, riboswitch, aminoallyl-U conjugated to TQ3 at 24; Cy3-C at 55) GGGAAGAUAUAAUCCUAAUGAUAUGGUUUGGGAGUUUCUACCAAGAGCCUUAAACUCUUGAUUAUCUUCCC; experiment: as above; settings: 100 mM KCl, 2 mM MgCl2; 10 mM HEPES, pH 7.5; 0.4 μM RNA; apparent
smiles,measurement,setting,value
Nc1ncnc2c1ncn2[C@@H]1O[C@H](COP(=O)(O)OP(=O)(O)OP(=O)(O)O)[C@@H](O)[C@H]1O,binding,[1]; tested up to 1 mM ATP,no
Nc1ncnc2[nH]cnc12,KD,[2],15.826 ± 0.287 µM
same,KD,[3],61.833 ± 0.621 µM
Nc1nc2[nH]cnc2c(=O)[nH]1,binding,[1]; tested up to 1 mM guanine,no
